Results from patent US7713994B2 (Wyeth LLC, priority 2005, dated 2010).
Where two headings read alike, the source gives them in different places.

Experiments:
Assay type in all cases: cell-based
HCT-116 = assay: Cytotoxicity assay (SRB), HCT-116; details: Homo sapiens, HCT-116, 72 h, read-out: In Vitro Cellular Activity IC50 HCT116
Protocol: (§1) BT474, HCT-116, LoVo and MCF-7 were maintained under 7% CO2 in RPMI 1640 medium supplemented with 10% fetal bovine serum and 50 µg/ml gentamicin.
(§2) Cells were plated in 96-well microtiter dishes (12000 cells/well for BT474, 4000 cells/well for HCT-116, 6000 cells/well for LoVo and 6000 cells/well for MCF-7) in RPMI 1640 medium containing 5% fetal bovine serum and 50 µg/ml gentamicin. The cells were allowed to incubate overnight at 37° C., 7% CO2. Compound dilutions were prepared using the same medium. HCT-116, LoVo and MCF-7 cells were cultured for three days and BT474 cells were cultured for 6 days, in the presence of each compound dilution. Untreated cells were included as controls. The percentage of surviving cells was determined using a protein binding dye (sulforhodamineB, SRB) assay. Cellular protein was precipitated in each well by the addition of 0.05 ml of 50% cold trichloroacetic acid (TCA). After 1 hour, the plates were washed extensively in dH2O and dried. The sulforhodamineB dye solution (0.08 mL of 0.4% SRB in 1% acetic acid) was added to each well, kept at room temperature for ten minutes, then washed in 1% acetic acid and dried. The dye was dissolved in 10 mM Tris-HCl (150 uL) and the absorbency read at 540 nm.

LoVo = assay: Cytotoxicity assay (SRB), LoVo; details: Homo sapiens, LoVo, 72 h, read-out: In Vitro Cellular Activity IC50 LOVO
Protocol: as §1, §2

BT474 = assay: Cytotoxicity assay (SRB), BT474; details: Homo sapiens, BT-474, 144 h, read-out: In Vitro Cellular Activity IC50 BT474
Protocol: as §1, §2

MCF-7 = assay: Cytotoxicity assay (SRB), MCF-7; details: Homo sapiens, MCF7, 72 h, read-out: In Vitro Cellular Activity IC50 MCF-7
Protocol: as §1, §2

SMILES | IC50 (HCT-116; HCT116 cells, SRB, three days) | IC50 (LoVo; LoVo cells, SRB, three days) | IC50 (BT474; BT474 cells, SRB, 6 days) | IC50 (MCF-7; MCF-7 cells, SRB, three days) | IC50 (HCT-116; HCT116 cells, 3 days, SRB) | IC50 (LoVo; LoVo cells, 3 days, SRB) | IC50 (BT474; BT474 cells, 6 days, SRB) | IC50 (MCF-7; MCF-7 cells, 3 days, SRB) | also measured
CC(C)(C)OC(=O)N1CCN(c2ccc(N/C=C3\C(=O)NC(=O)c4ccc(I)cc43)cc2)CC1 [Example 377, tert-Butyl 4-(4-{[(Z)-(6-iodo-1,3-dioxo-2,3-dihydroisoquinolin-4(1H)-ylidene)methyl]amino}phenyl)piperazine-1-carboxylate] | 11 µM | > 50 µM | > 50 µM | > 50 µM |  |  |  |  | 
CN1CCN(c2ccc(N/C=C3\C(=O)NCc4ccc(Br)cc43)cc2)CC1 [Example 223, (4Z)-6-Bromo-4-({[4-(4-methylpiperazin-1-yl)phenyl]amino}methylene)-1,4-dihydroisoquinolin-3(2H)-one] | 4.1 µM | 2.8 µM | 8.7 µM | 3.2 µM |  |  |  |  | 
O=C1NC(=O)c2ccc(Br)cc2/C1=C/NCc1ccc(OCCOCc2ccccc2)c(O)c1 [Example 159] | 16 µM | 18 µM | 25 µM | > 50 µM |  |  |  |  | 
COC(=O)Oc1cc(CN/C=C2\C(=O)NC(=O)c3ccc(Br)cc32)ccc1OC [compound 83, 5-({[(Z)-(6-Bromo-1,3-dioxo-2,3-dihydroisoquinolin-4(1H)-ylidene)methyl]amino}methyl)-2-methoxyphenyl methyl carbonate] | 4.5 µM | 2.6 µM | 3.2 µM | 29.9 µM |  |  |  |  | 
CC(C)(C)OC(=O)N1CCN(c2ccc(N/C=C3\C(=O)NC(=O)c4ccc(Br)cc43)cc2)CC1 [Example 294, tert-Butyl 4-(4-{[(Z)-(6-bromo-1,3-dioxo-2,3-dihydroisoquinolin-4(1H)-ylidene)methyl]amino}phenyl)piperazine-1-carboxylate] | 9 µM | > 50 µM | 49 µM | 24 µM |  |  |  |  | 
CN1CCN(c2ccc(N/C=C3\C(=O)NC(C)(C)c4ccc(-c5ccoc5)cc43)cc2)CC1 [Example 458, 6-Furan-3-yl-1,1-dimethyl-4-{[4-(4-methyl-piperazin-1-yl)-phenylamino]-methylene}-1,4-dihydro-2H-isoquinolin-3-one] |  |  |  |  | 2.7 µM | 1.2 µM | 3.5 µM | 4.2 µM | 
CCCCN(C)CCN(C)c1ccc(NC=C2C(=O)NC(=O)c3ccc(Br)cc32)cc1 (stereo in doubt) [Example 257, (4Z)-6-Bromo-4-[({4-[{2-[butyl(methyl)amino]ethyl}(methyl)amino]phenyl}amino)methylene]isoquinoline-1,3(2H,4H)-dione] | 2.5 µM | 4.7 µM | 6.5 µM | 3.6 µM |  |  |  |  | 
COc1ccc(CN/C=C2\C(=O)N(C(C)=O)N(C(C)=O)c3ccccc32)cc1O [Example 167, (4Z)-1,2-Diacetyl-4-{[(3-hydroxy-4-methoxybenzyl)amino]methylene}-1,4-dihydrocinnolin-3(2H)-one] | 11 µM | 12 µM | 9.6 µM | 13 µM |  |  |  |  | 
O=C1NC(=O)c2ccc(Br)cc2C1=CNc1ccc(-c2ccncc2)cc1 [Example 329, 6-Bromo-4-[(4-pyridin-4-yl-phenylamino)-methylene]-4H-isoquinoline-1,3-dione] | 4.7 µM | 30 µM | 18.5 µM | 14 µM |  |  |  |  | 
CCOP(=O)(OCC)c1ccc2c(c1)/C(=C/Nc1ccc(N3CCN(C)CC3)cc1)C(=O)NC2=O [Example 284, Diethyl [(4Z)-4-({[4-(4-methylpiperazin-1-yl)phenyl]amino}methylene)-1,3-dioxo-1,2,3,4-tetrahydroisoquinolin-6-yl]phosphonate] |  |  |  |  |  |  |  |  | IC50 (HCT-116): 20 µM; IC50 (LoVo): 25 µM; IC50 (BT474): > 50 µM; IC50 (MCF-7): 12 µM
CC(C)(C)OC(=O)N1CCCC1c1ccc(N/C=C2\C(=O)NC(=O)c3ccc(I)cc32)cc1 (stereo not shown) [Example 461, 2-{4-[(6-Iodo-1,3-dioxo-2,3-dihydro-1H-isoquinolin-4-ylidenemethyl)-amino]-phenyl}-pyrrolidine-1-carboxylic acid tert-butyl ester] |  |  |  |  | 22.8 µM | 24.1 µM | 7.7 µM | 23.3 µM | 
CN1CCN(c2ccc(N/C=C3\C(=O)NC(C)(C)c4ccc(Br)cc43)cc2)CC1 [Example 452, 6-Bromo-1,1-dimethyl-4-{[4-(4-methyl-piperazin-1-yl)-phenylamino]-methylene}-1,4-dihydro-2H-isoquinolin-3-one] |  |  |  |  | 3.1 µM | 1.5 µM | 9.3 µM | 3.3 µM | 
O=C1NC(=O)c2ccc(I)cc2/C1=C/NCc1ccc(-c2ccncc2)c(O)c1 [Example 511, 4-[(3-Hydroxy-4-pyridin-4-yl-benzylamino)-methylene]-6-iodo-4H-isoquinoline-1,3-dione] |  |  |  |  | 2.3 µM | 2.5 µM | 2.5 µM | 1.5 µM | 
COc1cnc(CN/C=C2\C(=O)NC(=O)c3ccc(I)cc32)nc1O [Example 479, 4-{[(4-Hydroxy-5-methoxy-pyrimidin-2-ylmethyl)-amino]-methylene}-6-iodo-4H-isoquinoline-1,3-dione] |  |  |  |  | > 50 µM | > 50 µM | 43 µM | > 50 µM | 
O=C1NC(=O)c2ccc(I)cc2/C1=C/NCc1ccc(-c2ccccn2)c(O)c1 [Example 509, 4-[(3-Hydroxy-4-pyridin-2-yl-benzylamino)-methylene]-6-iodo-4H-isoquinoline-1,3-dione] |  |  |  |  | 0.25 µM | 0.19 µM | 0.13 µM | 0.54 µM | 
O=C1NC(=O)c2ccc(Br)cc2/C1=C/NCc1ccc2cc[nH]c2c1 [Example 129, (4Z)-6-Bromo-4-{[(1H-indol-6-ylmethyl)amino]methylene}isoquinoline-1,3(2H,4H)-dione] | 26 µM | > 50 µM | 30 µM | 39 µM |  |  |  |  | 
O=C1NC(=O)c2ccc(I)cc2/C1=C/Nc1ccc(C2=NCCC2)cc1 [Example 403, 4-{[4-(4,5-Dihydro-3H-pyrrol-2-yl)-phenylamino]-methylene}-6-iodo-4H-isoquinoline-1,3-dione] |  |  |  |  | 41.5 µM | > 50 µM | 40 µM | > 50 µM | 
COc1ccc(CN/C(C)=C2\C(=O)NC(=O)CC2c2ccccc2)cc1O (stereo not shown) [Example 140, (3Z)-3-{1-[(3-hydroxy-4-methoxybenzyl)amino]ethylidene}-4-phenylpiperidine-2,6-dione] | > 50 µM | > 50 µM | 30 µM | > 50 µM |  |  |  |  | 
O=C1NC(=O)c2ccc(Br)cc2/C1=C/NCc1ccccc1O [Example 174, (4Z)-6-Bromo-4-{[(2-hydroxybenzyl)amino]methylene}isoquinoline-1,3(2H,4H)-dione] | 19 µM | 35 µM | 30 µM | 50 µM |  |  |  |  | 
O=C1NCc2ccccc2C1=CNc1ccc(N2CCCCC2)cc1 [Example 860, 4-[(4-Piperidin-1-yl-phenylamino)-methylene]-1,4-dihydro-2H-isoquinolin-3-one] |  |  |  |  | 33 µM | 36.1 µM | 35.2 µM | 40 µM | 
O=C1NCc2ccccc2C1=CNc1cccc(O)c1 [Example 859, 4-[(3-Hydroxy-phenylamino)-methylene]-1,4-dihydro-2H-isoquinolin-3-one] |  |  |  |  | 40.4 µM | 40 µM | 31.2 µM | 20.6 µM | 
CCCCN(C)CCN(C)c1ccc(NC=C2C(=O)NC(=O)c3ccc(Br)cc32)cc1 (stereo in doubt) [Example 866, (4Z)-6-Bromo-4-[({4-[{2-[butyl(methyl)amino]ethyl}(methyl)amino]phenyl}amino)methylene]isoquinoline-1,3(2H,4H)-dione] |  |  |  |  | 2.5 µM | 4.7 µM | 6.5 µM | 3.6 µM | 
